# Experimental data from article PMC6884456, “Supreme activity of gramicidin S against resistant, persistent and biofilm cells of staphylococci and enterococci” (Scientific Reports, 2019).
# Where no end group is shown, it is not given here.
# Legend:
# S. aureus DSM 1104 [1] = type: cell-based, Staphylococcus aureus; details: S. aureus DSM 1104; 10 µl from MIC plates spotted on Mueller-Hinton agar, overnight 37 °C, no colonies on two plates
# S. aureus MRSA9 = type: cell-based, Staphylococcus aureus; details: S. aureus MRSA9; spotted from MIC plates on Mueller-Hinton agar, overnight, no colonies
# S. aureus DSM 1104 SCV [2] = type: cell-based, Staphylococcus aureus; details: value in parentheses
# Experimental: (§1) This parameter quantifies the ability of the peptides to prevent biofilm outgrowth.
# (§2) After co-incubation with peptides at 37 °C and 5% CO2 without agitation for 24 hours, the planktonic cells were washed, and Crystal violet staining was applied.
# E. faecalis DSM 2570 [3] = type: cell-based, Enterococcus faecalis; details: E. faecalis DSM 2570; spotted from MIC plates on Mueller-Hinton agar, overnight, no colonies
# S. aureus MRSA4 = type: cell-based, Staphylococcus aureus; details: S. aureus MRSA4; spotted from MIC plates on Mueller-Hinton agar, overnight, no colonies
# E. faecalis TRE2 [4] = type: cell-based, Enterococcus faecalis; details: E. faecalis TRE2; spotted from MIC plates on Mueller-Hinton agar, overnight, no colonies
# E. faecalis TRE1 = type: cell-based, Enterococcus faecalis; details: E. faecalis TRE1; spotted from MIC plates on Mueller-Hinton agar, overnight, no colonies
# E. faecium VRE2 = type: cell-based, Enterococcus faecium; details: E. faecium VRE2; spotted from MIC plates on Mueller-Hinton agar, overnight, no colonies
# S. aureus MRSA3 = type: cell-based, Staphylococcus aureus; details: S. aureus MRSA3; spotted from MIC plates on Mueller-Hinton agar, overnight, no colonies
# E. faecalis WW6 [5] = type: cell-based, Enterococcus faecalis; details: E. faecalis WW6; spotted from MIC plates on Mueller-Hinton agar, overnight, no colonies
# Danio rerio embryos = test: Acute toxicity in Danio rerio embryos; type: in vivo; details: zebrafish embryos 72 hpf, E3 medium, heart beat
# Experimental: Experiments were performed in accordance with the relevant OECD testing guidelines[73] and German animal protection standards. Wild type D. rerio embryos were obtained at the European Zebrafish Resource Center (Karlsruhe). Fertilized eggs (6 hpf) were raised in 4 ml of embryonic medium (E3) at 28 °C until 72 hpf (6-well plate, 20 eggs/well). Embryos were transferred into flat-bottom glass vials (E3, 1 ml, 15–20 embryos/vial). Peptides were added as 20 µl aliquots in 10% dimethyl sulfoxide in serial 2-fold dilutions. Toxicity was expressed as the concentration at which 50% of the embryos were visually observed to die (measured at 1 and 3 hours exposure) by identifying the heart beat.
# [6] = test system: α1-acid glycoprotein (AGP); test: AGP binding, biomimetic chromatography; details: Chiralpak-AGP column
# Experimental: (§3) HPLC was performed on an Agilent 1100 system with an ultraviolet diode array detector. […] Binding measurements were performed using Regis Technologies IAM.PC.DD2 (100 × 4.6 mm), HiChrom Chiralpak-HSA (50 × 3 mm) and HiChrom Chiralpak-AGP (50 × 3 mm) columns. […] Retention times were converted to log k and % binding, using calibration routines described in[72].
# [7] = target: human serum albumin (HSA) (Homo sapiens, UniProt P02768); test: HSA binding, biomimetic chromatography; details: Chiralpak-HSA column
# human serum albumin (HSA), sequence (P02768 25-609): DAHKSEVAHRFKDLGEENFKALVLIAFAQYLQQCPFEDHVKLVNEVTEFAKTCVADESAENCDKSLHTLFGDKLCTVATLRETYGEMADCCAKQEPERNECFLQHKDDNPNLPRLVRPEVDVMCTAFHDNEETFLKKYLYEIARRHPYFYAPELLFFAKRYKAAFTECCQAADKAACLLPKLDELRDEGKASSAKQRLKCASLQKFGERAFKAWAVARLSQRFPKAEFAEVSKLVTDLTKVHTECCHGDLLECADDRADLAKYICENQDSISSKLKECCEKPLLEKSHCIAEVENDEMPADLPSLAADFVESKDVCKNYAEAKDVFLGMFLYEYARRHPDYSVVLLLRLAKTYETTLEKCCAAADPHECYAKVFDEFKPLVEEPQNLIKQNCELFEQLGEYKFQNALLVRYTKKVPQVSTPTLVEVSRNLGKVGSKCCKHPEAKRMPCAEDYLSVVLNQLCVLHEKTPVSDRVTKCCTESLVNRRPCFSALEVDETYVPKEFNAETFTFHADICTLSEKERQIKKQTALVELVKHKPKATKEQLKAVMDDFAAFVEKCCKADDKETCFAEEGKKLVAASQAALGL
# Experimental: as §3
# E. faecalis WW4 = type: cell-based, Enterococcus faecalis; details: E. faecalis WW4; spotted from MIC plates on Mueller-Hinton agar, overnight, no colonies
# S. aureus MRSA538 SCV = details: spotted from MIC plates on Mueller-Hinton agar, overnight, no colonies
# Experimental: (§4) MBC was determined directly after the MIC evaluation. The 10 µl samples of all 8 dilution rows in the microtiter plates were spotted on square Mueller-Hinton agar plates and incubated overnight at 37 °C and 5% CO2. The MBC was determined as the concentration at which no bacterial colonies were obtained on the two parallel spotted plates.
# S. aureus MRSA9 SCV = details: spotted from MIC plates on Mueller-Hinton agar, overnight, no colonies
# Experimental: as §4
# S. aureus MRSA8 SCV [8] = details: spotted from MIC plates on Mueller-Hinton agar, overnight, no colonies
# Experimental: as §4
# human erythrocytes = test: Haemolysis assay; type: cell-based; details: 0.25% human erythrocyte suspension, 37 °C, 30 min, A540, relative to 0.1% Triton X-100
# Experimental: Haemolytic activity was determined with a serial 2-fold dilution assay. Citrate phosphate dextrose-stabilized human erythrocyte suspensions were obtained from Karlsruhe Municipal Hospital. […] The mixture was pelleted (13 000 rpm, 10 min, 4 °C), and the absorbance of the supernatant was recorded at 540 nm vs. reaction buffer. The extent of haemolysis was related to the action of 0.1% Triton X-100 (100%).
# E. faecium VRE1 = type: cell-based, Enterococcus faecium; details: E. faecium VRE1; spotted from MIC plates on Mueller-Hinton agar, overnight, no colonies
# [9] = Chromatographic hydrophobicity index (CHI), C18
# Experimental: as §3
# S. aureus DSM 1104 SCV [10] = type: cell-based, Staphylococcus aureus; details: spotted from MIC plates on Mueller-Hinton agar, overnight, no colonies
# Experimental: MBC was determined directly after the MIC evaluation.
# E. faecalis WW6 [11] = details: E. faecalis WW6; Todd-Hewitt broth, 5 × 10^7 CFU/ml, 24 h, 37 °C, Crystal violet
# Experimental: as §1, §2
# E. faecalis TRE2 [12] = details: E. faecalis TRE2; value in parentheses
# Experimental: as §1, §2
# S. aureus DSM 1104 [13] = details: S. aureus DSM 1104; value in parentheses
# Experimental: as §1, §2
# S. aureus MRSA8 SCV [14] = details: value in parentheses
# Experimental: as §1, §2
# E. faecalis DSM 2570 [15] = details: E. faecalis DSM 2570; value in parentheses
# Experimental: as §1, §2
# E. faecalis TRE4 = type: cell-based, Enterococcus faecalis; details: E. faecalis TRE4; spotted from MIC plates on Mueller-Hinton agar, overnight, no colonies
# [16] = 50 mM ammonium acetate pH 7.4, 0–35% 2-propanol gradient, calibrated retention times, UV
# [17] = pH 7.4, 0–35% 2-propanol gradient, value in parentheses
substance,measurement,setting,value
"VRLIVAVRIWRR-NH2 [IDR, IDR-1018]",MBC,S. aureus DSM 1104 [1],128 (83) µg/ml
same,MBC,S. aureus MRSA9,128 (83) µg/ml
same,MBIC90,S. aureus DSM 1104 SCV [2],83 µM
same,MBC,E. faecalis DSM 2570 [3],64 (42) µg/ml
same,MBC,S. aureus MRSA4,> 256 µg/mL
same,MBC,E. faecalis TRE2 [4],128 (83) µg/ml
same,MBC,E. faecalis TRE1,64 (42) µg/ml
same,MBC,E. faecium VRE2,32 (21) µg/ml
same,MBC,S. aureus MRSA3,128 (83) µg/ml
same,MBC,E. faecalis WW6 [5],64 (42) µg/ml
same,1h LD50,Danio rerio embryos; 1 hour exposure,15 µg/mL
same,3h LD50,Danio rerio embryos; 3 hours exposure,11 µg/mL
same,Bound AGP,[6]; [16],93.37%
same,log k AGP,[6]; [17],1.09
same,Bound HSA,[7]; [16],97.98%
same,log k HSA,[7]; [17],1.51
same,MBC,E. faecalis WW4,64 (42) µg/ml
same,MBC,S. aureus MRSA538 SCV,128 (83) µg/ml
same,MBC,S. aureus MRSA9 SCV,128 (83) µg/ml
same,MBC,S. aureus MRSA8 SCV [8],128 (83) µg/ml
same,Haemolysis at 5 μM,human erythrocytes; 5 μM peptide,18%
same,Haemolysis at 10 μM,human erythrocytes; 10 μM peptide,28%
same,MBC,E. faecium VRE1,32 (21) µg/ml
same,chromatographic logD,[9]; pH 2.6,-0.53
same,chromatographic logD,[9]; pH 7.4,0.88
same,chromatographic logD,[9]; pH 10.5,4.43
same,MBC,S. aureus DSM 1104 SCV [10],128 (83) µg/ml
same,MBIC90,E. faecalis WW6 [11],> 256 µg/mL
same,MBIC90,E. faecalis TRE2 [12],167 µM
same,MBIC90,S. aureus DSM 1104 [13],42 µM
same,MBIC90,S. aureus MRSA8 SCV [14],42 µM
same,MBIC90,E. faecalis DSM 2570 [15],167 µM
same,MBC,E. faecalis TRE4,16 (10) µg/ml
